pIC50: −log10 of the molar value. Activity calls are given as the source filed them. How the calls were made is not given here.
Molecular target: Ubiquitin carboxyl-terminal hydrolase 8 (Homo sapiens) (UniProt P40818)
Experiment: Ubiquitin-specific protease 8 inhibitors, concentration-effect, biochemical, validation of initial actives (AID 1645862);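 further: potency reflects inhibition of USP8 cleavage of a ubiquitin rhodamine substrate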
Details: recombinant USP8 deubiquitinase activity assay

Chain of Ubiquitin carboxyl-terminal hydrolase 8 (Homo sapiens) (P40818 whole entry, looked up): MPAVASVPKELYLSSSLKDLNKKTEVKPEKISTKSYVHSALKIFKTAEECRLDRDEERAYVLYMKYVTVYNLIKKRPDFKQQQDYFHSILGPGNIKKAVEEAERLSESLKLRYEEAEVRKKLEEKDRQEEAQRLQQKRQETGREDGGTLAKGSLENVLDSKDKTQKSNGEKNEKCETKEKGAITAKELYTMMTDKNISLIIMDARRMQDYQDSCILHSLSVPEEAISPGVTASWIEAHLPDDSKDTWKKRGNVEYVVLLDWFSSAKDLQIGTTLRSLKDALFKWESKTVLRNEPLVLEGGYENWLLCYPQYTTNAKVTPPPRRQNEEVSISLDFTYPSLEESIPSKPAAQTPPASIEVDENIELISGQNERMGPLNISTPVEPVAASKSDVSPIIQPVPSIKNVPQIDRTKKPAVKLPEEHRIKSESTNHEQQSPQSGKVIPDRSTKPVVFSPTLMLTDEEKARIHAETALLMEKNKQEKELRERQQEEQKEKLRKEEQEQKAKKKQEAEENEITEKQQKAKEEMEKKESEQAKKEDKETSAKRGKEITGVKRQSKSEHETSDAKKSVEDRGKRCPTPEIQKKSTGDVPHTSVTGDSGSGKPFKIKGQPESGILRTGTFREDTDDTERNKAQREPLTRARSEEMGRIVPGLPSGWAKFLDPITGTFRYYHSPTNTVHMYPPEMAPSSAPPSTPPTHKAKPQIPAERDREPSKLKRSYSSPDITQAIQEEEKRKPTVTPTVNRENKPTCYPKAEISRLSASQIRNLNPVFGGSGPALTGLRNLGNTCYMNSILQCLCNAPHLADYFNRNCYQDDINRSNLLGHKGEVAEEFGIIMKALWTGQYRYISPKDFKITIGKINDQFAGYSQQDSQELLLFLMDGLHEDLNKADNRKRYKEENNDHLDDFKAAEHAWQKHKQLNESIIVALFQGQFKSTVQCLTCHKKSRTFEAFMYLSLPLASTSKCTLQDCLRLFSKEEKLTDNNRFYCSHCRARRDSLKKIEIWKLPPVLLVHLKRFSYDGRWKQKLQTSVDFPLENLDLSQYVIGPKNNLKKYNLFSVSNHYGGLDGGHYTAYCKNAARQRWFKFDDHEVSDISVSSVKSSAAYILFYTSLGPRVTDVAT

Compound | pIC50 | IC50
CCCn1cc(C(=O)N2CCC3(CC2)CC2(CO3)Nc3ccccc3-n3cccc32)c(C)n1 (stereo not given) | 4.43 | –
CC(C)CC(=O)Nc1cc(F)c2nc(N3CCOCC3)ccc2c1 | – | > 40 µM (inactive)
O=C(COC(=O)c1cc2c(s1)CCC2)c1ccc2[nH]c(=O)[nH]c2c1 | – | > 40 µM (inactive)
CC1(C(=O)NCc2ccc(F)cc2)Cn2nc(-c3ccco3)cc2C(=O)N1c1ccc2c(c1)OCCO2 (stereo not given) | – | > 40 µM (inactive)
O=C(/C=C/C=C/C=C/C1CCCCC1)NC1=C[C@@](O)(/C=C/C=C/C=C/C(=O)NC2=C(O)CCC2=O)[C@@H]2O[C@@H]2C1=O | – | > 40 µM (inactive)
Cc1cccc(OCC2=NN3C(=N)/C(=C\c4cc(C)n(-c5cc(C)cc(C)c5)c4C)C(=O)N=C3S2)c1 | – | > 40 µM (inactive)
CCOc1ccc(NC(=O)Cn2cc(C(=O)c3ccc(Cl)cc3)c(=O)c3cc(OC)ccc32)cc1 | – | > 40 µM (inactive)
CNc1ncc(C(=O)N2CCOC(C(=O)N3CCCCCC3)C2)cn1 (stereo not given) | – | > 40 µM (inactive)
Cc1ccccc1NC(=O)Cn1c(=O)n(-c2ccc(CC(=O)NCCc3ccccc3)cc2)c(=O)c2sccc21 | 4.43 | –
COc1c2nc3ccccc3oc-2cc(=O)c1OC | – | > 40 µM (inactive)
O=C(COc1ccc(N2CC(C(=O)NCc3ccc4c(c3)OCO4)CC2=O)cc1)Nc1ccc(Cl)cc1 (stereo not given) | – | > 40 µM (inactive)
O=C(Cn1c(=O)c2ccccc2c2ccccc21)Nc1ccc2c(c1)OCO2 | – | > 40 µM (inactive)
Cn1c(=O)n([C@@H](Cc2ccccc2)C(=O)N[C@@H](C(=O)O)c2ccc(O)cc2)c(=O)c2ccccc21 | – | > 40 µM (inactive)
O=C(Nc1cc(S(=O)(=O)Nc2ccc(Cl)cc2)ccc1O)c1cc2c(s1)CCC2 | 4.97 | –
N#Cc1c(-c2ccc(Cl)cc2)cc(-c2cccc(Br)c2)[nH]c1=O | 4.59 | –
O=c1c2[nH]c3ccccc3c2ncn1CCC1=CCCCC1 | – | > 40 µM (inactive)
COC(=O)c1ccc2c(=O)n(CCCCCC(=O)NCc3cccc(Cl)c3)c(=O)[nH]c2c1 | – | > 40 µM (inactive)
COCC(=O)N1CCC(n2c(C3CC3)nc3sc(C)c(C)c3c2=O)CC1 | – | > 40 µM (inactive)
COc1ccc(OC)c(NC(=O)Cn2c(=O)n(CC3CCC(C(=O)NCCc4ccccc4)CC3)c(=O)c3ccccc32)c1 (stereo not given) | – | > 40 µM (inactive)
CCOc1ccc(C(=O)CCC(=O)Nc2cccc(S(=O)(=O)Nc3cccc(Cl)c3)c2)cc1 | – | > 40 µM (inactive)
COc1ccc(Cl)cc1C(=O)NNC(=O)c1cc(-c2ccccc2)n[nH]1 | – | > 40 µM (inactive)
COc1ccc(-c2cc3nc([C@H](C)NC(=O)Cc4cccc(F)c4)nn3cn2)cc1 | – | > 40 µM (inactive)
COc1ccc(NC(=O)Cn2c(=O)n(CCCCC(=O)NCc3ccco3)c(=O)c3ccccc32)cc1Cl | – | > 40 µM (inactive)

Compound | pIC50 | IC50
CCOC(=O)c1cc2c(ccn2-c2ccc(F)cc2)n1CC(=O)Nc1ccc2c(c1)OCCO2 | – | > 40 µM (inactive)
Cc1cc(=O)n2c3c(c4c(cc13)c(CO)cc(=O)n4C)OC2 | 4.65 | –
CCN(c1ccc(NC(=O)COC(=O)c2cccnc2Nc2cccc(C(F)(F)F)c2)cc1)C(C)C | – | > 40 µM (inactive)
O=C(CCn1c(=O)c2ccccc2n(Cc2ccccc2F)c1=O)NCc1ccco1 | – | > 40 µM (inactive)
O=C(c1ccccn1)N1CCC2(CC1)CC1(CO2)Nc2ccccc2-n2cccc21 (stereo not given) | 4.64 | –
O=[N+]([O-])c1ccc2c(c1)nc1n2CCN(Cc2ccco2)C1 | – | > 40 µM (inactive)
COc1cc(O)c2c(O)c3c(cc2c1)C[C@@]1(O)CC(=O)C(C(N)=O)=C(O)[C@@]1(O)C3=O | 5.44 | –
COc1cc(OC)cc(N2C(=O)N(CC(=O)c3ccc(Br)cc3)c3ccccc3S2(=O)=O)c1 | – | > 40 µM (inactive)
Cc1cc(C(=O)NC2(O)C(=O)c3ccccc3C2=O)n(C)n1 | 5.09 | –
O=C(NC1(O)C(=O)c2ccccc2C1=O)c1cccc2c1-c1ccccc1C2=O | 5.19 | –
O=c1cc(-c2ccc(O)c(O)c2)oc2cc(O)cc(O)c12 | 5.68 | –
CCCCCCCCCCCC1=C(O)C(=O)C=C(O)C1=O | 5.33 | –
Cn1c(O)c(C2=Nc3ccccc3SC(c3cccc(O)c3)C2)c(=O)[nH]c1=O (stereo not given) | – | > 40 µM (inactive)
O=C(Nc1cccc(C(F)(F)F)c1)c1cc2c(s1)-c1ccccc1OC2 | – | > 40 µM (inactive)
Cc1cc(N2CCN(c3ncccn3)CC2)nc2ccc(NC(=O)Cn3nc([N+](=O)[O-])c(Br)c3C)cc12 | – | > 40 µM (inactive)
O=C(CCn1c(=O)c2sccc2n(CC(=O)OCc2ccccc2)c1=O)NCc1ccc2c(c1)OCO2 | – | > 40 µM (inactive)
CSc1ccc(CNC(=O)Cn2c(=O)[nH]c3c(-c4ccccc4)c[nH]c3c2=O)cc1 | – | > 40 µM (inactive)
Nc1ccc2oc(-c3cccc(-c4nc5cc(N)ccc5o4)n3)nc2c1 | 4.48 | –
CC(C)c1ccc(NC(=O)COC(=O)c2ccc(NS(=O)(=O)c3ccc4c(c3)OCCO4)cc2)cc1 | – | > 40 µM (inactive)
CCOc1ccc2c(c1)c(=O)c(C(=O)c1ccccc1)cn2CC(=O)Nc1ccc2c(c1)OCCO2 | – | > 40 µM (inactive)
O=C(Nc1ccc(Cn2cnc(-c3nc(-c4ccccc4)no3)c2)cc1)c1ccccc1F | – | > 40 µM (inactive)
Cc1cc(N2CCOCC2)nc(N2CCN(C(=O)C(C)Oc3ccccc3)CC2)n1 (stereo not given) | – | > 40 µM (inactive)

Source: PubChem BioAssay AID1645862 (Buhrlage Lab, Dana-Farber Cancer Institute and Novartis …, 2021)
